A short description of the series: pH of suspensions. The conditions noted are these: 0.2% w/v solution in water. The series is classed as physicochemical. The procedure:
The effect of the suspending agent and sweetener on the pH and viscosity of the suspensions was examined. AVICEL® RC 591, alone and in combination with other potential formulation components, was suspended in water. The pH of the suspensions was measured using a pH meter. The viscosity of the suspensions was measured on a Brookfield […] RV series viscometer: spindle size 4 at 20 rpm was used. The suspensions were visually inspected for signs of precipitation, sedimentation, and consistency.

As for `OC[C@H]1O[C@H](O[C@]2(CCl)O[C@H](CCl)[C@@H](O)[C@@H]2O)[C@H](O)[C@@H](O)[C@H]1Cl` [sucralose], the pH of solution came to 6.4.

Source of the values: US20110117193A1, “ANTIRETROVIRAL DRUG FORMULATIONS FOR TREATMENT OF CHILDREN EXPOSED TO HIV/AIDS” (priority 2008, published 2011).
